Experimental data: patent US9481630B2, “Ingenane-type diterpene compound, and pharmaceutical composition for treating or preventing viral infectious diseases containing same” (priority 2011, dated 2016)

System: NK92 cells
Assay: IFN-γ production in NK92 cells, released IFN-γ in culture supernatant by ELISA
Assay type: cell-based, human
Settings: for effect on IFN-γ production: 10 nM, similar to the same dose of PMA (positive control)
Method: NK92 cells (human NK lymphoma) were obtained from American Type Culture Collection. NK92 cells were kept in α-MEM (Invitrogen, US) containing 20% fetal bovine serum (Invitrogen), 2 mM […], […] (Invitrogen), and were replenished with 100 U/mL IL-2 (Peprotech, US). NK92 cell culture was carried out in a culture medium at 37° C. under 5% CO2 humidity atmosphere. The amount of human IFN-γ was analyzed according to the protocol of a supplier using an assay kit (Endogen, Woburn, US).
In order to detect IFN-γ, 2×10^5 NK92 cell/mL was inoculated in a 48-well culture plate, and was cultured for 12 hours with each isolated compounds in an α-MEM medium containing 20% FBS and IL-2. The IFN-γ released in the culture supernatant was analyzed using an ELISA method. The absorbance was measured on a microplate reader and the treatment and the analysis for all the compounds were repeated twice. The cell toxicity of the compound-treated NK92 cells was evaluated through an MTT analysis.

Row | Molecule | effect on IFN-γ production | activity for inducing IFN-γ production (5 μM) | also measured
1 | CCCCCCCCCCCC(=O)O[C@@]12C[C@@H](C)[C@]34C=C(C)[C@H](O)[C@@]3(O)[C@H](OC(=O)C(C)C(C)C)C(C)=C[C@H](C4=O)C1C2(C)C (stereo partly drawn) [Compound 1, 5-O-(2,3-dimethylbutanoyl)-13-O-dodecanoyl-20-O-deoxyingenol] | – | – | activity for inducing IFN-γ production (1.25 μM): had activity for inducing IFN-γ production
2 | CCCCCCCCCC(=O)OCC1=C[C@@H]2C(=O)[C@]3(C=C(C)[C@H](O)[C@@]3(O)[C@@H]1O)[C@H](C)C[C@@H]1[C@H]2C1(C)C [Compound 3, 20-O-decanoylingenol] | – | – | activity for inducing IFN-γ production (100 nM): had activity for inducing IFN-γ production
3 | CCCCC/C=C\C=C\C(=O)O[C@H]1C(C)=C[C@]23C(=O)[C@@H](C=C(COC(C)=O)[C@@H](O)[C@]12O)[C@H]1[C@@H](C[C@H]3C)C1(C)C [Compound 4, 20-O-acetylingenol-3-O-(2′E,4′Z) decadienate] | significant effects on the IFN-γ production | – | –
4 | CCCCCCCCCCCC(=O)O[C@@]12C[C@@H](C)[C@]34C=C(C)[C@H](OC(=O)C(C)C(C)C)[C@@]3(O)[C@H](O)C(CO)=C[C@H](C4=O)[C@@H]1C2(C)C (stereo partly drawn) [Compound 6, 3-O-(2,3-dimethylbutanoyl)-13-O-dodecanoylingenol] | significant effects on the IFN-γ production | – | –
5 | C[C@H](C/C=C/C(C)(C)O)[C@@H]1CC[C@]2(C)C3=C(CC[C@@]12C)[C@@]1(C)CC[C@H](O)C(C)(C)C1CC3 (stereo partly drawn) [Compound 8, (20R,23E)-eupha-8,23-diene-3b,25-diol] | – | had activity for inducing IFN-γ production | –
6 | gansuiphorin A [Compound 5] | – | had activity for inducing IFN-γ production | –
